Values after ≈ are worked out from the molar mass of the structure shown. Peptide text beside a SMILES is read from it.
Key:
[1] = test system: Staphylococcus aureus CVCC 546; test: microbe, parasite or virus in culture; assay type: cell-based
Method in brief: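 Each strain was exposed to two-fold serial dilutions of peptide in a plate assay. After incubation for 16∼20 h at 37°C, wells were scored for growth, and the MIC was recorded as the lowest concentration lacking visible growth.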

mouse erythrocytes = test: Hemolytic activity; assay type: cell-based; conditions: 128 μg/mL, 8% (v/v) mouse erythrocytes in PBS, 1 h, 37°C, absorbance 576 nm, n = 3
Method: Hemolytic activity of peptides was evaluated with fresh mouse erythrocytes. Briefly, fresh mouse erythrocytes were collected, washed, and resuspended to a concentration of 8% (v/v) in PBS. Then, an aliquot of erythrocyte solution was added to 96-well plates containing an equal volume of peptide solution (1∼256 μg/mL) and was incubated for 1 h at 37°C. The erythrocyte suspension treated with 0.1% Triton X-100 and left untreated was employed as positive and negative controls, respectively. After centrifugation at 2000 rpm for 5 min, the supernatant was measured using a microplate reader at 576 nm. The percent hemolysis was calculated using the following formula: Percenthemolysis = [(A − A0)/(A100 − A0)] × 100%, where A, A100, and A0 represent the absorbance of the peptide sample and positive and negative controls, respectively.

[2] = test system: mouse macrophage RAW 264.7; test: Cytotoxicity, MTT assay; assay type: cell-based; conditions: 256 μg/mL, RAW 264.7, MTT, n = 4
Method: The cytotoxicity of peptides toward mouse macrophage RAW 264.7 was evaluated by the MTT assay as described previously ([Wang X. et al., 2018]).

S. aureus CVCC 546 = test: Mouse thigh infection model, CFU in thigh muscle; assay type: in vivo, mouse (female CD-1); conditions: 10 mg/kg single i.p. dose 2 h post-infection, read 24 h post-infection, n = 6
Method: Mouse experiments were carried out at Gene Engineering Laboratory, Feed Research Institute of Chinese Academy of Agricultural Sciences (CAAS) and complied with institutional animal care and use policies and procedures (AEC-CAAS-20090609). All animal studies were performed with female CD-1 mice, 6∼7 weeks old.
S. aureus CVCC 546 in the exponential phase were resuspended in MHB and adjusted to 1 × 10^8 CFU/mL, a 0.1-mL inoculum was injected into the right thighs of mice. At 2 h post-infection, mice (n = 6) were administered intraperitoneally (i.p.) with peptides at 2.5, 5, or 10 mg/kg. Mice raised without any treatment, or treated with PBS, 10 mg/kg DLP4, or vancomycin were used as the blank and negative and positive controls, respectively. At 24 h post-infection, peripheral blood was collected and serum was separated for cytokine levels analysis by using enzyme-linked immunosorbent assay (ELISA) kit (R&D systems, United States). Mice were euthanized, the right thighs were aseptically removed and processed for colonies counting ([Ling et al., 2015]).

## CC[C@H](C)[C@@H]1NC(=O)[C@@H]2CSSC[C@@H](C(=O)N[C@@H](CCCNC(=N)N)C(=O)N[C@@H](CCCCN)C(=O)O)NC(=O)[C@H](CC(N)=O)NC(=O)[C@@H]3CSSC[C@H](NC(=O)[C@H](C)NC(=O)[C@H](C)NC(=O)[C@H](Cc4c[nH]cn4)NC(=O)CNC(=O)[C@H](C(C)C)NC(=O)[C@H](CCCCN)NC(=O)[C@H](Cc4ccccc4)NC(=O)[C@@H]4CCCN4C(=O)[C@H](CO)NC(=O)[C@H](CC(C)C)NC(=O)[C@H](CC(C)C)NC(=O)[C@H](CC(=O)O)NC(=O)[C@@H](NC(=O)[C@@H](NC(=O)[C@H](C)N)[C@@H](C)O)CSSC[C@H](NC(=O)[C@H](Cc4c[nH]c5ccccc45)NC(=O)CNC(=O)CNC(=O)[C@H](CCCNC(=N)N)NC(=O)[C@H](CCCCN)NC(=O)CNC(=O)[C@H](CCCNC(=N)N)NC(=O)[C@H](C)NC1=O)C(=O)N[C@@H](CC(=O)O)C(=O)NCC(=O)N[C@@H](CCCNC(=N)N)C(=O)N[C@@H](C)C(=O)N[C@@H](C(C)C)C(=O)N3)C(=O)N[C@@H](C)C(=O)N[C@@H](C)C(=O)N[C@@H](Cc1c[nH]cn1)C(=O)N2 [ID13] (HELM PEPTIDE1{A.T.C.D.L.L.S.P.F.K.V.G.H.A.A.C.A.A.H.C.I.A.R.G.K.R.G.G.W.C.D.G.R.A.V.C.N.C.R.K}$PEPTIDE1,PEPTIDE1,3:R3-30:R3|PEPTIDE1,PEPTIDE1,16:R3-36:R3|PEPTIDE1,PEPTIDE1,20:R3-38:R3$$$V2.0; N-terminus and C-terminus assumed)
[1]; Table 1, – = no activity
  MIC: 4
[1]; microtiter, 37°C, 16∼20 h, triplicate
  MIC: 0.95 µM (≈ 3.99 µg/mL)
Mouse erythrocytes
  hemolysis: 0.38%
[2]
  cell viability: 71.4%
S. aureus CVCC 546
  reduction of S. aureus in infected thigh muscles: 1.8 log10 (CFU/g)

— PMC7291858, “An Enhanced Variant Designed From DLP4 Cationic Peptide Against Staphylococcus aureus CVCC 546” (Frontiers in Microbiology, 2020)
